# Assays:
# [1] = system: GDNF release by primary rat astrocytes; test: GDNF release by primary rat astrocytes, in situ ELISA; type: cell-based; conditions: 1 μM, 5 days incubation
# Method: Experimental Protocol-In Situ ELISA on Primary Astrocytes Rat Primary Culture of Astrocytes Rat mixed glial cells were cultured as described by McCarthy et al. Primary rat glial cells were prepared from the cortical of newborn Wistar rats (1 day). Briefly, meninges and blood vessels of the mice cortex were removed and placed in ice-cold medium of Leibovitz (L15; PanBiotech, ref P04-27055, batch 4511117) containing 2% Penicillin-Streptomycin (PS; PanBiotech, ref P06-07100, batch 2110917) and 1% of bovine serum albumin (BSA; […] Cells were then submitted to a supplementary incubation of 15 min. at 37° C. in presence of deoxyribonuclease I (0.1 mg/mL Panbiotech, ref: P60-37780100, batch: H140508). Cells were then pelleted (5 min. at 1200 rpm) and trypsinization was stopped by adding DMEM (PanBiotech, Ref P04-03600, Batch 8420517) supplemented with 10% FCS (Fischer, Ref 10270106, batch 41A0940K), 1 mM of Na/pyruvate (PanBiotech, ref: P04-43100, batch 3470914). Cells suspension was mechanically dissociated and filtered through […] diameter nylon meshes (BD Falcon, Ref: 352340). The cells were collected by centrifugation at 1200 rpm/min for 10 min, resuspended in culture medium and then plated in culture flasks (Dutscher, ref: 690175). Cells were seeded at a density of 1.25×10^5 cells/cm^2 and culture in 5% CO2 at 37° C. Medium was changed 3 times per week. At confluency, astrocytes were plated in 96-well Nunc MaxiSorp surface polystyrene flat-bottom immunoplate precoated with poly-D-lysine during 30 min (Sigma, Ref: […], batch: SLBS8705) and an anti-GDNF monoclonal antibody overnight at 4° C. at a density of 30,000 cells/well. […] At the end of drug treatment, cells were carefully washed with TBST (20 mM Tris-HCl (pH 7.6), 150 mM NaCl, and 0.05% (vol/vol) Tween 20). The plate was then incubated with the polyclonal anti-human GDNF antibody overnight. The amount of specifically bound polyclonal antibody, which when exposed to chromogenic substrate (TMB reagent; Promega), changes color in proportion to the amount of GDNF present in the sample. The color intensity was quantified by measuring the absorbance at 450 nm. GDNF standards, ranging in concentration from 0 to 500 pg/mL were added in parallel wells in the same medium than hippocampal neurons.
# [2] = system: BDNF release by primary hippocampal neurons; test: BDNF release by primary hippocampal neurons, in situ ELISA; type: cell-based, rat; conditions: 1 μM, 3 days incubation
# Method: Hippocampal neurons were plated in 96-well Nunc MaxiSorp surface polystyrene flat-bottom immunoplate precoated with poly-D-lysine during 30 min an anti-BDNF monoclonal antibody overnight at 4° C. at a density of 70,000 cells/well. […] At the end of drug treatment, cells were carefully washed with TBST (20 mM Tris-HCl (pH 7.6), 150 mM NaCl, and 0.05% (vol/vol) Tween 20). The plate was then incubated with the polyclonal anti-human BDNF antibody overnight and BDNF quantified.
# Experimental Protocol—In Situ ELISA on Primary Hippocampal Neurons Hippocampal Neuron Culture
# Newborn rats (Wistar rats, Janvier) were deeply anesthetized by hypothermia and decapitated. […] Cells were mechanically dissociated by 3 passages through a 10 ml pipette. Cells were then centrifuged at 515×g for 10 min at 4° C. […] Viable cells were counted in a Neubauer cytometer using the trypan blue exclusion test.
# Hippocampal neurons were plated in 96-well Nunc MaxiSorp surface polystyrene flat-bottom immunoplate precoated with poly-D-lysine during 30 min (Sigma, Ref: P7886, batch: SLBS8705) an anti-BDNF monoclonal antibody overnight at 4° C. at a density of 70000 cells/well.
# At the end of drug treatment, cells were carefully washed with TBST (20 mM Tris-HCl (pH 7.6), 150 mM NaCl, and 0.05% (vol/vol) Tween 20). The plate was then incubated with the polyclonal anti-human BDNF antibody overnight. The amount of specifically bound polyclonal antibody was then detected through the use of the anti-IgY-horseradish peroxidase tertiary antibody, which when exposed to the chromogenic substrate (TMB reagent; Promega), changes color in proportion to the amount of BDNF present in the sample. The color intensity was quantified by measuring the absorbance at 450 nm.
# [3] = system: BDNF release by primary rat astrocytes; test: BDNF release by primary rat astrocytes, in situ ELISA; type: cell-based; conditions: 1 μM, 5 days incubation
# Method: At confluency, astrocytes were plated in 96-well Nunc MaxiSorp surface polystyrene flat-bottom immunoplate precoated with poly-D-lysine during 30 min. and an anti-BDNF monoclonal antibody overnight at 4° C. at a density of 30,000 cells/well. […] At the end of drug treatment, cells were carefully washed with TBST (20 mM Tris-HCl (pH 7.6), 150 mM NaCl, and 0.05% (vol/vol) Tween 20). The plate was then incubated with the polyclonal anti-human BDNF antibody overnight and BDNF quantified. Experimental Protocol-In Situ ELISA on Primary Astrocytes Rat Primary Culture of Astrocytes Rat mixed glial cells were cultured as described by McCarthy et al. Primary rat glial cells were prepared from the cortical of newborn Wistar rats (1 day). […] Medium was changed 3 times per week. At confluency, astrocytes were plated in 96-well Nunc MaxiSorp surface polystyrene flat-bottom immunoplate precoated with poly-D-lysine during 30 min (Sigma, Ref: […], batch: SLBS8705) and an anti-BDNF monoclonal antibody overnight at 4° C. at a density of 30,000 cells/well. (Balkowiec and Katz “Cellular Mechanisms Regulating Activity-Dependent Release of Native Brain-Derived Neurotrophic Factor from Hippocampal Neurons” J. […] At the end of drug treatment, cells were carefully washed with TBST (20 mM Tris-HCl (pH 7.6), 150 mM NaCl, and 0.05% (vol/vol) Tween 20). The plate was then incubated with the polyclonal anti-human BDNF antibody overnight. The amount of specifically bound polyclonal antibody, which when exposed to chromogenic substrate (TMB reagent; Promega), changes color in proportion to the amount of BDNF present in the sample. The color intensity was quantified by measuring the absorbance at 450 nm. BDNF standards, ranging in concentration from 0 to 500 pg/mL were added in parallel wells in the same medium than hippocampal neurons.
# [4] = system: BDNF expression by astrocytes; test: BDNF expression by astrocytes, qPCR; type: cell-based, rat; conditions: for BDNF expression astrocytes, % increase of control conditions: 25 ug/mL, 5 days incubation
# Method: For analysis of BDNF expression by real-time quantitative polymerase chain reaction (qPCR), astrocytes were seeded in 24 well-plates pre-coated with poly-D-lysine. After 1 day of culture, fresh serum free medium containing compounds was added during 5 days at 37° C. At the end of the incubation time total RNA content were extracted and reverse transcription was performed. Expression levels were calculated using the ΔCt method where the expression level of the mRNA of interest is given by 2-ΔCT with ΔCT=CT target mRNA−CT reference mRNA (Gapdh), in the same sample.
# Rat Primary Culture of Astrocytes—rat mixed glial cells were cultured as described by McCarthy et al., 1980. Primary rat glial cells were prepared from the cortical of newborn Wistar rats (1 day). Briefly, meninges and blood vessels of the mice cortex were removed and placed in ice-cold medium of Leibovitz (L15; PanBiotech, ref P04-27055, batch 4511117) containing 2% of Penicillin-Streptomycin (PS; PanBiotech, ref P06-07100, batch 2110917) and 1% of bovine serum albumin (BSA; PanBiotech, ref P06-1391100, batch H171006). Tissues were dissociated with 0.25% trypsin-EDTA (PanBiotech, ref P10-023100, batch 8970318) at 37° C. for 10 min. Cells were then submitted to a supplementary incubation of 15 min at 37° C. in presence of deoxyribonuclease I (0.1 mg/ml Panbiotech, ref: P60-37780100, batch: H170706). Cells were then pelleted (5 min at 1200 rpm) and trypsinization was stopped by adding DMEM (Panbiotech, Ref P04-03600, Batch 5181217) supplemented with 10% FCS (Fischer, Ref 10270106, batch 42G2068K), 1 mM of Na/pyruvate (PanBiotech, ref: P04-43100, batch: 3470914) and 2% PS. Cells suspension was mechanically dissociated and filtered through 40 μm diameter nylon meshes (BD Falcon, Ref: 352340). The cells were collected by centrifugation at 1200 rpm/min for 10 min, re-suspended in culture medium and then plated in culture flasks (Dutscher, ref: 690175). Cells were seeded at a density of 1.25×10^5 cells/cm^2 and cultured in 5% CO2 at 37° C. Medium was changed three times per week.
# Analysis of BDNF expression by real-time quantitative polymerase chain reaction (PCR): astrocytes were seeded in 24 well-plates pre-coated with poly-D-lysine (Sigma, ref P7886, batch: SLBQ9797V). After 1 day of culture, fresh serum free medium containing compounds was added during 5 days at 37° C. At the end of the incubation time, medium was removed and total RNA content were extracted using kit nucleo spin RNS XS (Macherey Nagel; 20 μL/well). 6 wells/condition were done. RNA concentration was determined using a Nanodrop 2000 spectrophotometer (Life Technologies ThermoFisher Scientific, Villebon sur Yvette, France).
# Reverse transcription was performed on 500 ng of RNA using the high capacity RNA-to-cDNA mix (Applied Biotechnologies). qPCR was performed on 12.5 ng of cDNA using the following primers, purchased from Applied Biotechnology.
# For qPCR reactions, the kit TaqMan™ Fast Universal PCR Master Mix (2×) was used. The following volumes were used: mix: 10 uL, enzyme: 4 uL, oligo: 1 uL each, cDNA: 5 uL (12,5 ng). For the comparisons between various compounds and concentrations, expression levels were calculated using the ΔCt method where the expression level of the mRNA of interest is given by 2-ΔCT with ΔCT=CT target mRNA−CT reference mRNA (Gapdh), in the same sample. For the cultures treated with GA or the unknown compound, relative expression levels were determined according to the ΔΔCt method where the expression level of the mRNA of interest is given by 2-ΔΔCT where ΔΔCT=ΔCt for treated cultures−ΔCt for untreated cultures.
# [5] = modified release (MR) formulation of Compound (I) that reduces QT prolongation; cited from earlier work
molecule,measurement,setting,value
"Cc1cccc([C@H](C)c2cnc[nH]2)c1C [Dexmedetomidine, dexmedetomidine, reference compound]","GDNF release astrocytes, % increase of control conditions",[1],15.8%
same,"GDNF release astrocytes, % increase of control conditions",[1]; listed as dexmedetomidine,15.8%
"CCCN1CCC(c2cccc(S(C)(=O)=O)c2)CC1 [Pridopidine, pridopidine, reference compound]","BDNF release hippocampal neurons, % increase of control conditions",[2],18.4%
same,"BDNF release hippocampal neurons, % increase of control conditions",[2]; listed as pridopidine,18.4%
same,"BDNF release astrocytes, % increase of control conditions",[3],22.3%
same,"BDNF release astrocytes, % increase of control conditions",[3]; listed as pridopidine,22%
glatiramer acetate [reference compound],"BDNF expression astrocytes, % increase of control conditions",[4],10%
same,"BDNF expression astrocytes, % increase of control conditions",[4]; listed as glatiramer acetate,10%
same,Effect on BDNF expression by astrocytes compared to control condition (statistical),"[4]; 25 μg/mL, 5 days, ns p>0.05",no effect
O=C1c2ccccc2CN1CC1CCN(CC(O)c2ccc(F)cc2)CC1 (stereo not shown) [BFB-520],maximum plasma concentration (Cmax),[5],< 0.012 µg/mL
